Patent publication US20150265691A1 (priority 2006, published 2015)

test system: rabbit anti-B. anthracis spore polyclonal IgG antibodies; type: binding

| Molecule | IgG signal detected by glycan arrays (n = 3) Mean | IgG reactivities (Ratio of Sg./bg.) Mean | antibody reactivity detected by glycan arrays |
| --- | --- | --- | --- |
| C[C@H](O)[C@H](O)[C@@H](O)[C@@H](O)C=O [Saccharide 6, L-Rhamnose] | 1.03 | – | – |
| C[C@@H](O)[C@H](O)[C@H](O)[C@@H](O)C=O [Saccharide 7, D-Fucose] | 1.88 | – | – |
| O=C[C@H](O)[C@@H](O)[C@@H](O)[C@H](O)CO [Saccharide 8, D-Galactose] | 1.06 | – | – |
| O=C[C@H](O)[C@@H](O)[C@H](O)[C@H](O)CO [Saccharide 9, D-Glucose] | 1.04 | – | – |
| O=C[C@@H](O)[C@@H](O)[C@H](O)[C@H](O)CO [Saccharide 10, D-Mannose] | 1.03 | – | – |
| CC(=O)N[C@@H](C=O)[C@@H](O)[C@@H](O)[C@H](O)CO [Saccharide 11, N-acetyl-2-amino-2-deoxy-D-galactose] | 1.03 | – | – |
| O=C[C@H](O)[C@@H](O)[C@@H](O)CO [Saccharide 12, L-Arabinose] | 1.03 | – | – |
| O=C[C@H](O)[C@H](O)[C@@H](O)[C@@H](O)CO [Saccharide 13, L-Mannose] | 1.06 | – | – |
| COC(=O)CCCCCO[C@@H]1O[C@@H](C)[C@H](O)[C@@H](O)[C@H]1O [Saccharide 14, 5-(Methoxycarbonyl)pentyl α-L-rhamnopyranoside] | 0.97 | – | – |
| COC(=O)CCCCCO[C@H]1O[C@@H](C)[C@H](O)[C@@H](O)[C@H]1O [Saccharide 15, 5-(Methoxycarbonyl)pentyl β-L-rhamnopyranoside] | 0.95 | – | – |
| COC(=O)CCCCCO[C@@H]1O[C@@H](C)[C@H](O)[C@@H](O[C@@H]2O[C@@H](C)[C@H](O)[C@@H](O)[C@H]2O)[C@H]1O [Saccharide 16, 5-(Methoxycarbonyl)pentyl α-L-rhamnopyranosyl-(1→3)-α-L-rhamnopyranoside] | 1.00 | – | – |
| COC(=O)CCCCCO[C@@H]1O[C@@H](C)[C@H](O)[C@@H](O)[C@H]1O[C@@H]1O[C@@H](C)[C@H](O)[C@@H](O)[C@H]1O [Saccharide 18, 5-(Methoxycarbonyl)pentyl α-L-rhamnopyranosyl-(1→2)-α-L-rhamnopyranoside] | 1.26 | – | – |
| COC(=O)CCCCCO[C@H]1O[C@@H](C)[C@H](O)[C@@H](O)[C@H]1O[C@@H]1O[C@@H](C)[C@H](O)[C@@H](O)[C@H]1O [Saccharide 19, 5-(Methoxycarbonyl)pentyl α-L-rhamnopyranosyl-(1→2)-β-L-rhamnopyranoside] | 0.98 | – | – |
| COC(=O)CCCCCO[C@H]1O[C@@H](C)[C@H](O)[C@@H](O)[C@H]1O[C@@H]1O[C@@H](C)[C@H](O)[C@@H](O[C@@H]2O[C@@H](C)[C@H](O)[C@@H](O)[C@H]2O)[C@H]1O [Saccharide 20, 5-(Methoxycarbonyl)pentyl α-L-rhamnopyranosyl-(1→3)-α-L-rhamnopyranosyl-(1→2)-β-L-rhamnopyranoside] | 0.95 | – | – |
| CO[C@H]1O[C@H](CO)[C@H](O)[C@H](O)[C@H]1O[C@@H]1O[C@@H](C)[C@H](O)[C@@H](O)[C@H]1O [Saccharide 21, Methyl <-L-rhamnopyranosyl-(1→2)-<-D-galactopyranoside, reference compound] | 1.08 | – | – |
| CO[C@H]1O[C@H](CO)[C@H](O)[C@H](O)[C@H]1O[C@@H]1O[C@@H](C)[C@H](O)[C@@H](O[C@@H]2O[C@@H](C)[C@H](O)[C@@H](O[C@H]3O[C@H](CO)[C@@H](O)[C@H](O)[C@H]3NC(C)=O)[C@H]2O)[C@H]1O [Saccharide 22, Methyl 2-acetamido-2-deoxy-<-D-glucopyranosyl-(1→3)-<-L-rhamnopyranosyl-(1→3)-<-L-rhamnopyranosyl-(1→2)-<-D-galactopyranoside, reference compound] | 0.95 | – | – |
| CO[C@H]1O[C@H](CO)[C@@H](O)[C@H](O[C@H]2O[C@H](CO)[C@H](O)[C@H](O)[C@H]2O[C@@H]2O[C@@H](C)[C@H](O)[C@@H](O)[C@H]2O)[C@H]1NC(C)=O [Saccharide 23, Methyl <-L-rhamnopyranosyl-(1→2)-<-D-galactopyranosyl-(1→3)-2-acetamido-2-deoxy-<-D-glucopyranoside] | 1.01 | – | – |
| CO[C@@H]1O[C@@H](C)[C@H](O)[C@@H](O[C@@H]2O[C@@H](C)[C@H](O)[C@@H](O)[C@H]2O)[C@H]1O [Saccharide 24, Methyl <-L-rhamnopyranosyl-(1→3)-<-L-rhamnopyranoside, reference compound] | 1.02 | – | – |
| CO[C@H]1O[C@H](CO)[C@H](O)[C@H](O)[C@H]1O[C@@H]1O[C@@H](C)[C@H](O)[C@@H](O[C@@H]2O[C@@H](C)[C@H](O)[C@@H](O)[C@H]2O)[C@H]1O [Saccharide 25, Methyl <-L-rhamnopyranosyl-(1→3)-<-L-rhamnopyranosyl-(1→2)-<-D-galactopyranoside, reference compound] | 1.02 | – | – |
| CO[C@H]1O[C@H](CO)[C@@H](O)[C@H](O[C@H]2O[C@H](CO)[C@H](O)[C@H](O)[C@H]2O[C@@H]2O[C@@H](C)[C@H](O)[C@@H](O[C@@H]3O[C@@H](C)[C@H](O)[C@@H](O)[C@H]3O)[C@H]2O)[C@H]1NC(C)=O [Saccharide 26, Methyl <-L-rhamnopyranosyl-(1→3)-<-L-rhamnopyranosyl-(1→2)-<-D-galactopyranosyl-(1→3)-2-acetamido-2-deoxy-<-D-glucopyranoside] | 1.01 | – | – |
| CO[C@H]1O[C@H](C)[C@@H](NC(=O)[C@@H](O)CCO)[C@H](O)[C@@H]1O[C@H]1O[C@H](C)[C@@H](NC(=O)[C@@H](O)CCO)[C@H](O)[C@@H]1O[C@H]1O[C@H](C)[C@@H](NC(=O)[C@@H](O)CCO)[C@H](O)[C@@H]1OC [Saccharide 27, Methyl 2-O-methyl-4,6-dideoxy-4-(3-deoxy-L-glycero-tetronamido)-<-D-mannopyranosyl-(1→2)-4,6-dideoxy-4-(3-deoxy-L-glycero-tetronamido)-<-D-mannopyranosyl-(1→2)-4,6-dideoxy-4-(3-deoxy-L-glycero-tetronamido)-<-D-mannopyranoside] | 1.01 | – | – |
| CO[C@H]1O[C@H](C)[C@@H](NC(=O)[C@@H](O)CCO)[C@H](O)[C@@H]1O[C@H]1O[C@H](C)[C@@H](NC(=O)[C@@H](O)CCO)[C@H](O)[C@@H]1O[C@H]1O[C@H](C)[C@@H](NC(=O)[C@@H](O)CCO)[C@H](O)[C@@H]1O[C@H]1O[C@H](C)[C@@H](NC(=O)[C@@H](O)CCO)[C@H](O)[C@@H]1OC [Saccharide 28, Methyl 2-O-methyl-4,6-dideoxy-4-(3-deoxy-L-glycero-tetronamido)-<-D-mannopyranosyl-(1→2)-bis-[4,6-dideoxy-4-(3-deoxy-L-glycero-tetronamido)-<-D-mannopyranosyl-(1→2)]-4,6-dideoxy-4-(3-deoxy-L-glycero-tetronamido)-<-D-mannopyranoside] | 1.07 | – | – |
| Methyl 2-O-methyl-4,6-dideoxy-4-(3-deoxy-L-glycero-tetronamido)-<-D-mannopyranosyl-(1→2)-tetrakis[4,6-dideoxy-4-(3-deoxy-L-glycero-tetronamido)-<-D-mannopyranosyl-(1→2)]-4,6-dideoxy-4-(3-deoxy-L-glycero-tetronamido)-<-D-mannopyranoside [Saccharide 30] | 1.67 | – | – |
| Methyl 2-O-methyl-4,6-dideoxy-4-(3-deoxy-L-glycero-tetronamido)-<-D-mannopyranosyl-(1→2)-tris[4,6-dideoxy-4-(3-deoxy-L-glycero-tetronamido)-<-D-mannopyranosyl-(1→2)]-4,6-dideoxy-4-(3-deoxy-L-glycero-tetronamido)-<-D-mannopyranoside [Saccharide 29] | 1.09 | – | – |
| Streptococcus pneumoniae type 23 capsular polysaccharide [Saccharide 35] | – | 12.35 | positive spots |
| [Methyl 2-O-methyl-4,6-dideoxy-4-(3-deoxy-L-glycero-tetronamido)-<-D-mannopyranosyl-(1→2)-4,6-dideoxy-4-(3-deoxy-L-glycero-tetronamido)-<-D-mannopyranosyl-(1→2)-4,6-dideoxy-4-(3-deoxy-L-glycero-tetronamido)-<-D-mannopyranoside]5-BSA [Saccharide 31] | 1.53 | – | – |
| [Methyl 2-O-methyl-4,6-dideoxy-4-(3-deoxy-L-glycero-tetronamido)-<-D-mannopyranosyl-(1→2)-bis[4,6-dideoxy-4-(3-deoxy-L-glycero-tetronamido)-<-D-mannopyranosyl-(1→2)]-4,6-dideoxy-4-(3-deoxy-L-glycero-tetronamido)-<-D-mannopyranoside]10-BSA [Saccharide 32] | 1.20 | – | – |
| [Methyl 2-O-methyl-4,6-dideoxy-4-(3-deoxy-L-glycero-tetronamido)-<-D-mannopyranosyl-(1→2)-tris[4,6-dideoxy-4-(3-deoxy-L-glycero-tetronamido)-<-D-mannopyranosyl-(1→2)]-4,6-dideoxy-4-(3-deoxy-L-glycero-tetronamido)-<-D-mannopyranoside]10-BSA [Saccharide 33] | 1.37 | – | – |

test system: rabbit anti-anthrax spore IgG; type: binding

| Molecule | inhibition of antibody reactivity with anthrose-tetrasaccharide |
| --- | --- |
| Nigerose [reference compound] | no inhibition |
| isomaltopentose [IM5, reference compound] | no inhibition |
